The results in this text go back to patent US10295551B2, “Development and use of fluorescent probes of unbound bilirubin” (Alan Marc Kleinfeld, priority 2011, dated 2019).

The structures appear in SMILES notation. Read-outs that look alike come from different tables or passages of the source.

Assay [1] has as its target T1, rI-FABP (SEQ ID NO: 3) variant BL22P1 B11 - 27C, MGI - KR14 - Y14R M18L K27C L38V V60R A73F R106L Q115R Y117D (Rattus norvegicus, UniProt P02693, A74F/K101R/K126R/K17R/K21R/K28C/K30R/K38R/K47R/K51R/K89R/K8R/K93R/K95R/L39V/L73A/M19L/Q116R/R107L/V61R/Y118D/Y15R).
T1 construct: 6xHis (C); made in house
Type of assay: binding. As to the method:
(§1) Also described are analytical/mathematical methods for calibrating and using the bilirubin probes. Bilirubin probes are calibrated to determine their binding affinity for bilirubin (dissociation constant Kd) under conditions, such as temperature, pH and solution composition, that correspond to samples in which it is desired to know the unbound bilirubin concentration. Binding isotherms are performed in aqueous buffer by measuring the change in fluorescence of the bilirubin probes in response to increasing bilirubin concentrations (“titration data”). The set of fluorescence responses at each bilirubin concentration are fitted with an appropriate equation (“calibration equation”) that correctly describes the fluorescence response as a function of the bilirubin concentration, the probe concentration, specific spectroscopic characteristics, and the Kd.

The target in assay [2] is T2, rI-FABP (SEQ ID NO: 3) variant BL22P1 B11 - 29C, MGI - KR14 - 14R 18L 27A 29C 38V 60R 73F 106L 115R 117D (Rattus norvegicus, UniProt P02693, A74F/K101R/K126R/K17R/K21R/K28A/K30C/K38R/K47R/K51R/K89R/K8R/K93R/K95R/L39V/L73A/M19L/Q116R/R107L/V61R/Y118D/Y15R).
T2 construct: 6xHis (C); made in house
T2 sequence (P02693 with tags, fused parts or gaps with the stated changes): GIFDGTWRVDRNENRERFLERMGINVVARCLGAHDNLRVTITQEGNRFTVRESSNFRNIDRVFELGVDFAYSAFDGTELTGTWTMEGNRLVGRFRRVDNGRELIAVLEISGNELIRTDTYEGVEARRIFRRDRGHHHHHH
In kind it is binding. The conditions noted are these: Table 5, Alexa Fluor 680 C2-maleimide. The protocol: as §1

The target of assay [3] is T3, rI-FABP (SEQ ID NO: 3) variant BL22P1 B11 - 33C, MGI - KR14 - 14R 18L 27A 33C 38V 60R 73F 106L 115R 117D (Rattus norvegicus, UniProt P02693, A74F/H34C/K101R/K126R/K17R/K21R/K28A/K30R/K38R/K47R/K51R/K89R/K8R/K93R/K95R/L39V/L73A/M19L/Q116R/R107L/V61R/Y118D/Y15R).
T3 construct: 6xHis (C); made in house
T3 sequence (P02693 with tags, fused parts or gaps with the stated changes): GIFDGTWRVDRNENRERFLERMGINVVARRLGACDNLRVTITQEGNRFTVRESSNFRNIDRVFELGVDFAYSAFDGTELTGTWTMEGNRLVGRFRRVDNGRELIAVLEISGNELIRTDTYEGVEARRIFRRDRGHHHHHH
Type of assay: binding. The protocol: as §1

Assay [4] has as its target T4, rI-FABP (SEQ ID NO: 3) variant BL22P1 B11 - 54C, MGI - KR14 - 14R 18L 27A 38V 54C 60R 73F 106L 115R 117D (Rattus norvegicus, UniProt P02693, A74F/K101R/K126R/K17R/K21R/K28A/K30R/K38R/K47R/K51R/K89R/K8R/K93R/K95R/L39V/L73A/M19L/N55C/Q116R/R107L/V61R/Y118D/Y15R).
T4 construct: 6xHis (C); made in house
Type of assay: binding. The conditions noted are these: Table 5, Alexa Fluor 680 C2-maleimide. As to the method:
as §1

Assay [5] concerns the target T5, rI-FABP (SEQ ID NO: 3) variant BL22P1 B11 - 26C, MGI - KR14 - Y14R M18L V26C K27A L38V V60R A73F R106L Q115R Y117D (Rattus norvegicus, UniProt P02693, A74F/K101R/K126R/K17R/K21R/K28A/K30R/K38R/K47R/K51R/K89R/K8R/K93R/K95R/L39V/L73A/M19L/Q116R/R107L/V27C/V61R/Y118D/Y15R).
T5 construct: 6xHis (C); made in house
Type of assay: binding. The conditions noted are these: Table 5, Alexa Fluor 680 C2-maleimide. The protocol:
as §1

Assay [6] addresses T6, rI-FABP (SEQ ID NO: 3) variant BL22P1 B11 - 74C, MGI - KR14 - 14R 18L 27A 38V 60R 73F 74C 106L 115R 117D (Rattus norvegicus, UniProt P02693, A74F/D75C/K101R/K126R/K17R/K21R/K28A/K30R/K38R/K47R/K51R/K89R/K8R/K93R/K95R/L39V/L73A/M19L/Q116R/R107L/V61R/Y118D/Y15R).
T6 construct: 6xHis (C); made in house
Type of assay: binding. The conditions noted are these: Table 5, Alexa Fluor 680 C2-maleimide. As to the method: as §1

Assay [7] has as its target T7, rI-FABP (SEQ ID NO: 3) variant BL22P1 B11 - 24C, MGI - KR14 - 14R 18L 24C 27A 38V 60R 73F 106L 115R 117D (Rattus norvegicus, UniProt P02693, A74F/K101R/K126R/K17R/K21R/K28A/K30R/K38R/K47R/K51R/K89R/K8R/K93R/K95R/L39V/L73A/M19L/N25C/Q116R/R107L/V61R/Y118D/Y15R).
T7 construct: 6xHis (C); made in house
In kind it is binding. The conditions noted are these: Table 5, Alexa Fluor 680 C2-maleimide. As to the method:
as §1

Assay [8] has as its target T8, rI-FABP (SEQ ID NO: 3) variant L24P19 C7 K27K 22C, 14R 18L 22C 38V 60R 73F 106C 115R 117D (Rattus norvegicus, UniProt P02693, A74F/G23C/L39V/L73A/M19L/Q116R/R107C/V61R/Y118D/Y15R).
T8 construct: made in house
Briefly: bilirubin binding to L24P19C7 22C probe. The conditions noted are these: Table 5, acrylodan. The protocol: as §1
(§2) . […] The optimal probe performance was obtained with cysteine at positions 25 or 26.

Assay [9] concerns the target T9, rI-FABP (SEQ ID NO: 3) variant L10P9 E6, 14T 18L 73M 117C 72A (Rattus norvegicus, UniProt P02693, A74M/L73A/M19L/Y118C/Y15T).
T9 construct: made in house
Put plainly: bilirubin binding to L10P9E6 probe. The conditions noted are these: Table 5, acrylodan. As to the method: as §1

In assay [10] the target is T10, rI-FABP (SEQ ID NO: 3) variant L24P19 C7 K27K 30C, 14R 18L 30C 38V 60R 73F 106C 115R 117D (Rattus norvegicus, UniProt P02693, A74F/L31C/L39V/L73A/M19L/Q116R/R107C/V61R/Y118D/Y15R).
T10 construct: made in house
T10 sequence (P02693 with tags, fused parts or gaps Y15R/M19L/L31C/L39V/V61R/L73A/A74F/R107C/Q116R/Y118D): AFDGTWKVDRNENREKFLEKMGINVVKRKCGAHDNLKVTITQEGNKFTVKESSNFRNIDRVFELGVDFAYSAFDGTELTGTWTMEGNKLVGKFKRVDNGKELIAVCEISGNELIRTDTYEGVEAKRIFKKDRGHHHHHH
Put plainly: bilirubin binding to L24P19C7 30C probe. The conditions noted are these: Table 5, acrylodan. The protocol:
as §1, §2

The mark [11] stands for this setting: Table 5, Alexa Fluor 680 C2-maleimide.
The mark [12] stands for this setting: Table 5, Alexa Fluor 750 C5-maleimide.

T1 sequence (P02693 with tags, fused parts or gaps with the stated changes): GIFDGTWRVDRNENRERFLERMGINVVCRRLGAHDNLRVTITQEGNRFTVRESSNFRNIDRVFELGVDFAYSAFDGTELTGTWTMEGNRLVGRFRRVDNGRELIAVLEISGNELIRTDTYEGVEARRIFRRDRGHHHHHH
T6 sequence (P02693 with tags, fused parts or gaps with the stated changes): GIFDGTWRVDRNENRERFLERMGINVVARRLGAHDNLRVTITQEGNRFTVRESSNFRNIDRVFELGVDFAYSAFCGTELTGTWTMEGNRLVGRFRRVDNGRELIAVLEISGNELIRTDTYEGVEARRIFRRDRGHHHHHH
T4 sequence (P02693 with tags, fused parts or gaps with the stated changes): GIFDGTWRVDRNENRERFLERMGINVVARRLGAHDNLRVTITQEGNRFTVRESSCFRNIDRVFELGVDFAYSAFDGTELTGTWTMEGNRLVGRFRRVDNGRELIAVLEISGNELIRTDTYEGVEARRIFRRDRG
T7 sequence (P02693 with tags, fused parts or gaps with the stated changes): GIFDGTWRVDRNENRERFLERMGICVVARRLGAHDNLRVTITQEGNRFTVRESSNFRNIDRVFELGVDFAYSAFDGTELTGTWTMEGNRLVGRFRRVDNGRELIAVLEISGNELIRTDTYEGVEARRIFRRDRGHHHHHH
T5 sequence (P02693 with tags, fused parts or gaps with the stated changes): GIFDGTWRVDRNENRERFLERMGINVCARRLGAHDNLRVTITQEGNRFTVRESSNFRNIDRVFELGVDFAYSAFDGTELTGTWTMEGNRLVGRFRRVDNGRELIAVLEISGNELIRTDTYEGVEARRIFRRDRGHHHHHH
T8 sequence (P02693 with tags, fused parts or gaps Y15R/M19L/G23C/L39V/V61R/L73A/A74F/R107C/Q116R/Y118D): as the sequence (P02693 with tags, fused parts or gaps Y15R/M19L/L31C/L39V/V61R/L73A/A74F/R107C/Q116R/Y118D) above, with G22C, C30L counted along it
T9 sequence (P02693 with tags, fused parts or gaps Y15T/M19L/L73A/A74M/Y118C): as the sequence (P02693 with tags, fused parts or gaps Y15R/M19L/L31C/L39V/V61R/L73A/A74F/R107C/Q116R/Y118D) above, with R14T, C30L, V38L, R60V, F73M, C106R, R115Q, D117C counted along it

A word on the Kd: it is the equilibrium constant for the complex coming apart. Low readings indicate higher affinity, high ones lower affinity. Consider `C=CC1=C(C)/C(=C/c2[nH]c(Cc3[nH]c(/C=C4\NC(=O)C(C)=C4C=C)c(C)c3CCC(=O)O)c(CCC(=O)O)c2C)NC1=O` [bilirubin], for which the Kd worked out at 70 nM in assay [1] (setting [11]); 154 nM in assay [1] (setting [12]); 118 nM in assay [2]; 250 nM in [3] (setting [11]); 120 nM in assay [3] (setting [12]); 160 nM in [4]. For the same molecule, the Kd in assay [5] was found to be 197 nM; in [6], 160 nM; in assay [7], 72 nM; in assay [8] it was 71 nM; in assay [9] it was 1430 nM; in assay [10] it was 26 nM.
